The values that follow are results of earlier work, collected in article PMC6182381, “Population Pharmacokinetics and Exposure-Response Relationships of Naldemedine” (Pharmaceutical Research, 2018).

Where two headings read alike, the source gives them in different places.

The subject of data set [1] is patients with chronic non-cancer pain and OIC. Also on record: method as in PMID 28576452. The conditions noted are these: cited from earlier work.
For data set [2] the test system is unchanged. Also on record: method as in PMID 28576452. The conditions noted are these: cited from earlier work. The source holds these as a separate data set.

In the case of `CC(C)(NC(=O)C1=C(O)[C@@H]2Oc3c(O)ccc4c3[C@@]23CCN(CC2CC2)[C@H](C4)[C@]3(O)C1)c1nc(-c2ccccc2)no1` [naldemedine], the proportion of responders in data set [1] (Study 1314 V9231 (Phase 3)) was 47.6%; in data set [1] (Study 1315 V9232 (Phase 3)) it was 52.5%. The “Treatment-related adverse events (patients)” value in data set [2] (Study 1314 V9231, 59 of 271 patients) was 22%; in data set [2] (Study 1315 V9232, 54 of 271 patients) it was 20%.
